Assay results taken from BindingDB's records for patent US12497392 (Hinova Pharmaceuticals, 2025).

Tests used:
[1] = target: T1, Histone acetyltransferase p300 [1049-1156] (UniProt Q09472); assay: Inhibitory Activity of Compounds on the Bromodomain (BRD) of CBP/EP300
T1 construct: 1049-1156
T1 sequence (Q09472 whole entry): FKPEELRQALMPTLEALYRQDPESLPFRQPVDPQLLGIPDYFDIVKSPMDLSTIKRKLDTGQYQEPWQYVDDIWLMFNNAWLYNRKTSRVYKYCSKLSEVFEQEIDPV
Method: (§1) A. Experimental MethodCBP and EP300AlphaScreen Test:1. Prepare 1× concentration of test buffer2. Preparation of compoundThe compound was firstly diluted in a ratio of 1:1000 relative to the final concentration using a Precision automatic sampler (by 3× gradient dilution method):1) 50 μL of compound solution with a storage concentration of 10 mM was transferred to A2 well of a 96-well plate using an Echo automatic sampler.2) 30 μL of DMSO was transferred to well A1, and wells A3 to A12 with Precision™.3) 15 μL solution was transferred from A2 to A3 by Precision, and this operation was sequentially repeated until 15 μL solution was transferred from well A10 to well A11. Thus, a 1:3 gradient dilution was completed.4) The compound plate was centrifuged at a speed of 1000 r/min for one minute.3. Preparation of test plate20 nL of solution was transferred from each concentration well of the compound plate to the test plate using an Echo automatic sampler: from well A1 of the preparation plate to wells A1 and A2 of the test plate, and from well A2 of the preparation plate to wells A3 and A4 of the test plate.4. Binding test of bromodomain (BRD)1) Preparation of 2-fold solution of protein and polypeptideThe protein and polypeptide were dissolved in a 1× concentration of detection buffer.2) 10 μL of protein and polypeptide solution was transferred to each well in columns 3 to 24 in the test plate, and 10 μL of 1× test buffer was transferred to wells in columns 1 to 2 in the test plate as negative control.3) The test plate was centrifuged at a speed of 1000 r/min for one minute.4) The test plate was incubated at room temperature for 15 min.5) A 2-fold receptor and donor solution was prepared by dissolving acceptor and donor beads with one-fold test buffer.6) 2-fold receptor and donor solutions were transferred to the test plate.15 μL of acceptor and donor solution was added and light was avoided.7) The test plate was centrifuged at a speed of 1000 r/min for one minute and then incubated at room temperature for 60 min.5. The Endpoints were Read in EnSpire and Alpha Modes.6. Curve fitting

[2] = target: T2, CREB-binding protein [1085-1192] (UniProt Q92793); assay: as above
T2 construct: 1085-1192
Method: as §1

T2 sequence (Q92793 1085-1192): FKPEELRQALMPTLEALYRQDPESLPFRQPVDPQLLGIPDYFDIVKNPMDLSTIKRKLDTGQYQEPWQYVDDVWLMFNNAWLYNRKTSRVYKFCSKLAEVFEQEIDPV

| IC50 [1] [nM] | IC50 [2] [nM] | Structure (SMILES) |
| --- | --- | --- |
| 2.2 | 4.8 | CO[C@H]1CC[C@H](n2c([C@@H]3CCOCC(=O)N3C3=CC(F)C(F)C=C3)nc3cc(C4C(C)=NOC4C)ccc32)CC1 (stereo partly specified) [US12497392, Compound 106] |
| 9.6 | 22 | COc1cccc(-c2nc3cc(C4C(C)=NOC4C)ccc3n2[C@H]2CC[C@H](OC)CC2)c1C1=CC(F)C(F)C=C1 (stereo partly specified) [US12497392, Compound 141] |
| 2.7 | 4.7 | CO[C@H]1C[C@@H](n2c([C@@H]3CCOC(=O)N3C3=CC(F)C(F)C=C3)nc3cc(C4C(C)=NOC4C)ccc32)C1 (stereo partly specified) [US12497392, Compound 143] |
